Reference: patent US9738932B2, “Biomarkers for cardiovascular side-effects induced by cox-2 inhibitory compounds” (FIRALIS SAS, priority 2005, dated 2017)

System: mRNA expression in cardiovascular tissues
Test: Affymetrix GeneChip mRNA expression profiling of monkey tissues (iliac vein, pulmonary vein, aorta, carotid artery, heart) after two-week oral-gavage treatment
[1] = iliac vein, group avg, Vioxx without A60055

SMILES: CS(=O)(=O)c1ccc(C2=C(c3ccccc3)C(=O)OC2)cc1 [Vioxx®, rofecoxib]
- HFE (211866_x_at) avg fold change vs control [1]: 1.0 fold
- HHL (203020_at) avg fold change vs control [1]: 1.1 fold
- HLA-A (211528_x_at) avg fold change vs control [1]: 1.3 fold
- HLA-A (211529_x_at) avg fold change vs control [1]: 1.2 fold
- HLA-A (211530_x_at) avg fold change vs control [1]: 1.8 fold
- HLA-A (215313_x_at) avg fold change vs control [1]: 1.3 fold
- HLA-B (208729_x_at) avg fold change vs control [1]: 1.2 fold
- HLA-B (209140_x_at) avg fold change vs control [1]: 1.1 fold
- HLA-B (211911_x_at) avg fold change vs control [1]: 1.4 fold
- HLA-C (208812_x_at) avg fold change vs control [1]: 1.3 fold
- HLA-C (214459_x_at) avg fold change vs control [1]: 1.4 fold
- HLA-C (216526_x_at) avg fold change vs control [1]: 1.3 fold
- HLA-DMA (217478_s_at) avg fold change vs control [1]: 1.1 fold
- HLA-DMB (203932_at) avg fold change vs control [1]: 1.1 fold
- HLA-DQA1 (212671_s_at) avg fold change vs control [1]: 1.0 fold
- HLA-DQB1 (209823_x_at) avg fold change vs control [1]: 0.9 fold
- HLA-DQB1 (211654_x_at) avg fold change vs control [1]: 1.0 fold
- HLA-DQB1 (211656_x_at) avg fold change vs control [1]: 1.0 fold
- HLA-DQB2 (212998_x_at) avg fold change vs control [1]: 1.2 fold
- HLA-DRA (208894_at) avg fold change vs control [1]: 1.0 fold
- HLA-DRA (210982_s_at) avg fold change vs control [1]: 1.0 fold
- HLA-DRB1 (215193_x_at) avg fold change vs control [1]: 1.2 fold
- HLA-DRB3 (209312_x_at) avg fold change vs control [1]: 1.1 fold
- HLA-DRB6 (217362_x_at) avg fold change vs control [1]: 1.2 fold
- HLA-E (200905_x_at) avg fold change vs control [1]: 1.3 fold
- HLA-E (217456_x_at) avg fold change vs control [1]: 1.2 fold
- HLA-F (204806_x_at) avg fold change vs control [1]: 1.1 fold
- HLA-F (221875_x_at) avg fold change vs control [1]: 1.2 fold
- ICAM1 (202638_s_at) avg fold change vs control [1]: 0.8 fold
- ICAM1 (215485_s_at) avg fold change vs control [1]: 0.9 fold
- ICSBP1 (204057_at) avg fold change vs control [1]: 1.4 fold
- IFI27 (202411_at) avg fold change vs control [1]: 3.8 fold
- IFI30 (201422_at) avg fold change vs control [1]: 1.0 fold
- IFI44 (214453_s_at) avg fold change vs control [1]: 2.5 fold
- IFIT1 (203153_at) avg fold change vs control [1]: 1.5 fold
- IFIT2 (217502_at) avg fold change vs control [1]: 1.3 fold
- IFIT4 (204747_at) avg fold change vs control [1]: 0.9 fold
- IFITM2 (201315_x_at) avg fold change vs control [1]: 1.1 fold
- IFITM3 (212203_x_at) avg fold change vs control [1]: 1.4 fold
- IGF1 (209541_at) avg fold change vs control [1]: 0.9 fold
- IGFBP4 (201508_at) avg fold change vs control [1]: 0.5 fold
- IL1A (208200_at) avg fold change vs control [1]: 1.1 fold
- IL2RG (204116_at) avg fold change vs control [1]: 1.4 fold
- IL27RA (205926_at) avg fold change vs control [1]: 1.1 fold
- INDO (210029_at) avg fold change vs control [1]: 1.1 fold
- INPP5D (203332_s_at) avg fold change vs control [1]: 1.2 fold
- IRF1 (202531_at) avg fold change vs control [1]: 0.8 fold
- IRF7 (208436_s_at) avg fold change vs control [1]: 1.6 fold
- ISGF3G (203882_at) avg fold change vs control [1]: 1.7 fold
- ITGB2 (202803_s_at) avg fold change vs control [1]: 0.6 fold
- JAK1 (214377_s_at) avg fold change vs control [1]: 1.3 fold
- KLKB1 (206541_at) avg fold change vs control [1]: 1.2 fold
- LAIR1 (208071_s_at) avg fold change vs control [1]: 0.5 fold
- LCK (204890_s_at) avg fold change vs control [1]: 1.5 fold
- LCP2 (205270_s_at) avg fold change vs control [1]: 0.9 fold
- LILRB1 (207857_at) avg fold change vs control [1]: 0.5 fold
- LILRB1 (211100_x_at) avg fold change vs control [1]: 1.3 fold
- LILRB3 (208594_x_at) avg fold change vs control [1]: 0.9 fold
- LILRB3 (210225_x_at) avg fold change vs control [1]: 0.8 fold
- LRMP (204674_at) avg fold change vs control [1]: 1.7 fold
- LY86 (205859_at) avg fold change vs control [1]: 1.5 fold
- LY96 (206584_at) avg fold change vs control [1]: 1.1 fold
- LYN (210754_s_at) avg fold change vs control [1]: 1.0 fold
- MAF (209348_s_at) avg fold change vs control [1]: 1.0 fold
- PCOLCE (202465_at) avg fold change vs control [1]: 0.5 fold
- PLA2G4C (209785_s_at) avg fold change vs control [1]: 1.2 fold
- PLCL2 (216217_at) avg fold change vs control [1]: 1.0 fold
- PLSCR1 (202446_s_at) avg fold change vs control [1]: 1.2 fold
- PRC1 (218009_s_at) avg fold change vs control [1]: 0.7 fold
- PRG1 (201858_s_at) avg fold change vs control [1]: 0.8 fold
- PRG1 (201859_at) avg fold change vs control [1]: 0.8 fold
- PTPN22 (206060_s_at) avg fold change vs control [1]: 1.0 fold
- PTPRC (207238_s_at) avg fold change vs control [1]: 1.3 fold
- SOCS3 (206360_s_at) avg fold change vs control [1]: 0.8 fold
- STAT1 (209969_s_at) avg fold change vs control [1]: 1.7 fold
- STAT1 (AFFX-HUMISGF3A/M97935_5_at) avg fold change vs control [1]: 1.3 fold
- STAT1 (AFFX-HUMISGF3A/M97935_MA_at) avg fold change vs control [1]: 1.3 fold
- STAT1 (AFFX-HUMISGF3A/M97935_MB_at) avg fold change vs control [1]: 1.5 fold
- TAPBP (208829_at) avg fold change vs control [1]: 0.9 fold
- TCTEL1 (201999_s_at) avg fold change vs control [1]: 0.9 fold
- TLR1 (210176_at) avg fold change vs control [1]: 0.9 fold
- TLR2 (204924_at) avg fold change vs control [1]: 0.9 fold
- TNFAIP3 (202643_s_at) avg fold change vs control [1]: 0.8 fold
- TNFAIP3 (202644_s_at) avg fold change vs control [1]: 1.2 fold
- TNFSF6 (210865_at) avg fold change vs control [1]: 1.1 fold
- TNFSF10 (202687_s_at) avg fold change vs control [1]: 1.2 fold
- TNFSF10 (202688_at) avg fold change vs control [1]: 0.9 fold
- TRGC2 (211144_x_at) avg fold change vs control [1]: 1.3 fold
- TRGC2 (216920_s_at) avg fold change vs control [1]: 1.0 fold
- VCAM1 (203868_s_at) avg fold change vs control [1]: 0.8 fold
- XCL1 (206366_x_at) avg fold change vs control [1]: 1.5 fold
- XCL1 (214567_s_at) avg fold change vs control [1]: 1.1 fold
- XLKD1 (219059_s_at) avg fold change vs control [1]: 1.0 fold
- cig5 (213797_at) avg fold change vs control [1]: 1.4 fold
- expression of CXCL10 and PD-ECGF (mainly in iliac and pulmonary veins, monkey #A60055): strongly induced
- increase of CXCL10 mRNA expression in pulmonary vein (monkey #A60055, 50 mg/kg/day oral gavage, two weeks, pulmonary vein): 20 fold
- increase of MCP-1 mRNA expression in pulmonary vein (monkey A60055, 50 mg/kg/day oral gavage, two weeks, pulmonary vein): 150 fold
- expression of cPLA2 (most of the cardiovascular tissues): upregulated
- expression of Toll like receptor 2 and CD14 (several tissues): significantly increased
